Reference: article PMC10809383, “Synthesis and migrastatic activity of cytochalasin analogues lacking a macrocyclic moiety” (RSC Medicinal Chemistry, 2023)

What was measured:
Format in all cases: cell-based
[1] = system: human melanoma cell line BLM; experiment: Spheroid invasion assay (migrastatic activity); conditions: 24 h; for rel. spheroid area: 10 µM, BLM spheroids in collagen, DMSO control 1.02
Procedure: Compounds 17, 20, and 22–30 were screened for their migrastatic activity using a spheroid invasion assay with the human melanoma cell line BLM.[46] Spheroids were formed and subsequently treated with cytochalasin analogues at a concentration of 10 μM for 24 h. CytB (1) and CytD (2) served as reference compounds for comparison. There was no significant increase in cell migration observed for any of the compounds tested. […] However, the effect was less profound than that of the reference compounds 1 and 2.
The spheroid invasion assay was performed following a previously published protocol.[63] Briefly, BLM cells were grown as spheroids using 3D Petri Dish (Microtissues). After 2 days of spheroid formation, 1.5 mg mL^−1 collagen solution (rat tail, collagen type I) was prepared (1.5 mg mL^−1 rat-tail collagen, 1× DMEM, 1% (v/v) FBS) and added at the bottom of a 96-well plate. Spheroids were embedded into the collagen (one spheroid per well) and covered with another layer of the gel. Collagen was polymerized at 37 °C and subsequently overlaid with a cultivation medium. Images of spheroids were taken with Leica TCS SP2 microscope (5×/0.15 dry objective; LAS X Life Science Microscope software) immediately after their seeding into collagen and again after 24 h. The area of the spheroids at 0 and 24 h was measured using FiJi (Rasband, W.S., ImageJ, NIH, Bethesda, MD, USA). Cellular invasiveness was determined as an increase in spheroid area within 24 h. Three independent experiments were conducted with at least 8 spheroids analysed in each experiment. Statistical analysis was performed in GraphPad using one-way ANOVA. For numeric data and representative images from this assay, see ESI, ^† Table S1 and Fig. S1.
Table S1: Spheroid invasion assay with BLM cell line at 10 µM concentration, 24 h.
Figure S1: Representative images of BLM cell spheroid invasion assay with or without
inhibitor. Images were taken at 0 h and 24 h. using a Leica TCS SP2 microscope (5x/0.15
dry objective). DMSO (first column) was used as a control. Scale bar 500 µm.

[2] = system: human melanoma cells (BLM); experiment: WST-1 viability assay, BLM cells; conditions: for IC50: Homo sapiens, 72 h treatment, WST-1 assay, 2D culture, 0–50 μM; for selectivity index (SI): MRC-5 versus BLM, 72 h, WST-1
Procedure: (§1) In addition, the cytotoxic activity of compounds 17, 20, and 22–30 was assessed by the WST-1 viability assay using BLM (human melanoma) and MRC-5 (noncancerous human fibroblasts) cells growing in a monolayer (2D cultures, Table 2) after 72 h of treatment.
(§2) Human cells from melanoma (BLM) and human lung fibroblasts (MRC-5, Merck, USA) were used to evaluate in vitro cytotoxicity of the prepared compounds. The cells were maintained at the exponential phase of growth (passaging done by trypsin–EDTA solution) in DMEM and MEM, for BLM and MRC-5, respectively, with stable L-glutamine and supplemented with 10% fetal bovine serum (Thermo Fisher Scientific, USA). The cells were kept in an incubator at 37 °C, 5% CO2 in the atmosphere, and 95% humidity.
(§3) The compound cytotoxicity was determined by a WST-1 viability assay (Merck, USA). The amount of 5000 BLM and MRC-5 cells were seeded into individual wells of 96-well plates in 100 μL of cell cultivation media and maintained in an incubator for 16 h. After this period, the cells were treated with a concentration series (0–50 μM) of the tested compounds diluted in another 100 μL of cultivation media, which was added to the wells containing cells and incubated for 72 h. Then, BLM and MRC-5 cell viability was evaluated by WST-1 agent (5% v/v solution in phenol red-free DMEM media), i.e., the cell media was discarded and 100 μL of WST-1 solution was added. After 2 h incubation, the absorbance of formazan, derived from the WST-1 tetrazolium salt was determined spectrophotometrically at 450 nm (reference at 650 nm) by a UV-vis spectrophotometer (Bio-Rad, USA). Untreated cells, cells treated only with a vehicle, and cells treated with cytochalasin B (1) and D (2) served as controls. The measurement occurred in three independent repetitions each of which consisted of three technical replicates. The data were plotted as dose–response curves from which the half-maximal inhibitory concentrations (IC50) were calculated using AAT Bioquest.

[3] = system: human fibroblasts (MRC-5); experiment: WST-1 viability assay, MRC-5 cells; conditions: MRC5, 72 h treatment, WST-1 assay, 2D culture, 0–50 μM
Procedure: as §1, §2, §3

Structure (SMILES)	rel. spheroid area [1]	IC50 [2] [µM]	IC50 [3] [µM]	selectivity index (SI) [2]	migrastatic activity (cell migration, in words) ([1]; 10 μM, BLM spheroid invasion)
COC(=O)[C@@]12C(=O)N[C@@H](Cc3ccccc3)[C@@H]1[C@H](C)[C@@]1(C)O[C@H]1[C@@H]2CCOCCc1ccc(Br)cc1 [Compound 22h, Methyl (1aS,2R,2aS,5S,5aR,6S,6aR)-5-benzyl-2-(2-(4-bromophenethoxy)ethyl)-6,6a-dimethyl-3-oxooctahydro-2aH-oxireno[2,3-f]isoindole-2a-carboxylate]	0.98	> 50	> 50		
COC(=O)[C@@]12C(=O)N[C@@H](Cc3ccccc3)[C@@H]1[C@H](C)C(C)=C[C@@H]2CCOCCc1cccc(F)c1 [Compound 17e, Methyl (1S,3aR,4S,7S,7aR)-1-benzyl-4-(2-(3-fluorophenethoxy)ethyl)-6,7-dimethyl-3-oxo-1,2,3,4,7,7a-hexahydro-3aH-isoindole-3a-carboxylate]	0.96	25.9 ± 2.97	31.9 ± 4.02	1.2	
COC(=O)[C@@]12C(=O)N[C@@H](Cc3ccccc3)[C@@H]1[C@H](C)C(C)=C[C@@H]2CCOCCc1ccc([N+](=O)[O-])cc1 [Compound 17j, Methyl (1S,3aR,4S,7S,7aR)-1-benzyl-6,7-dimethyl-4-(2-(4-nitrophenethoxy)ethyl)-3-oxo-1,2,3,4,7,7a-hexahydro-3aH-isoindole-3a-carboxylate]	1.12	35.2 ± 2.51	34.7 ± 6.18	1.0	
COC(=O)[C@@]12C(=O)N[C@@H](Cc3ccccc3)[C@@H]1[C@H](C)[C@@](C)(O)[C@@H](O)[C@@H]2CCOCCc1ccccc1 [Compound 23a, Methyl (1S,3aS,4R,5S,6R,7S,7aR)-1-benzyl-5,6-dihydroxy-6,7-dimethyl-3-oxo-4-(2-phenethoxyethyl)octahydro-3aH-isoindole-3a-carboxylate]	1.01	9.41 ± 2.52	20.9 ± 2.38	2.2	
COC(=O)[C@@]12C(=O)N[C@@H](Cc3ccccc3)[C@@H]1[C@H](C)[C@@]1(C)O[C@H]1[C@@H]2CCOCCc1ccc(OC)cc1 [Compound 22b, Methyl (1aS,2R,2aS,5S,5aR,6S,6aR)-5-benzyl-2-(2-(4-methoxyphenethoxy)ethyl)-6,6a-dimethyl-3-oxooctahydro-2aH-oxireno[2,3-f]isoindole-2a-carboxylate]	1.24	20.6 ± 6.43	> 50	>2.4	
COC(=O)[C@@]12C(=O)N[C@@H](Cc3ccccc3)[C@@H]1C(C)=C(C)[C@@H](O)[C@@H]2CCOCCc1ccccc1 [Compound 25, Methyl (1S,3aS,4R,5S,7aR)-1-benzyl-5-hydroxy-6,7-dimethyl-3-oxo-4-(2-phenethoxyethyl)-1,2,3,4,5,7a-hexahydro-3aH-isoindole-3a-carboxylate]	1.15	> 50	> 50		inactivity
COC(=O)[C@@]12C(=O)N[C@@H](Cc3ccccc3)[C@@H]1[C@H](C)C(C)=C[C@@H]2CCOCCc1ccc(Br)cc1 [Compound 17h, Methyl (1S,3aR,4S,7S,7aR)-1-benzyl-4-(2-(4-bromophenethoxy)ethyl)-6,7-dimethyl-3-oxo-1,2,3,4,7,7a-hexahydro-3aH-isoindole-3a-carboxylate]	1.05	> 50	> 50		
COC(=O)[C@@]12C(=O)N[C@@H](Cc3ccccc3)[C@@H]1[C@H](C)[C@@]1(C)O[C@H]1[C@@H]2CCOCCc1ccccc1 [Compound 22a, Methyl (1aS,2R,2aS,5S,5aR,6S,6aR)-5-benzyl-6,6a-dimethyl-3-oxo-2-(2-phenethoxyethyl)octahydro-2aH-oxireno[2,3-f]isoindole-2a-carboxylate]	1.11	> 50	> 50		
COC(=O)[C@@]12C(=O)N[C@@H](Cc3ccccc3)[C@@H]1[C@H](C)[C@@](C)(O)[C@@H](O)[C@@H]2CCOCCc1ccc(OC)cc1 [Compound 23b, Methyl (1S,3aS,4R,5S,6R,7S,7aR)-1-benzyl-5,6-dihydroxy-4-(2-(4-methoxyphenethoxy)ethyl)-6,7-dimethyl-3-oxooctahydro-3aH-isoindole-3a-carboxylate]	1.10	> 50	> 50		
COC(=O)[C@@]12C(=O)N[C@@H](Cc3ccccc3)[C@@H]1[C@H](C)C(C)=C[C@@H]2CCOCCc1ccc(F)cc1 [Compound 17d, Methyl (1S,3aR,4S,7S,7aR)-1-benzyl-4-(2-(4-fluorophenethoxy)ethyl)-6,7-dimethyl-3-oxo-1,2,3,4,7,7a-hexahydro-3aH-isoindole-3a-carboxylate]	1.24	27.7 ± 2.45	33.5 ± 4.98	1.2	
COC(=O)[C@@]12C(=O)N[C@@H](Cc3ccccc3)[C@@H]1[C@H](C)C(C)=C[C@@H]2CCOCCc1ccc(C)cc1 [Compound 17c, Methyl (1S,3aR,4S,7S,7aR)-1-benzyl-6,7-dimethyl-4-(2-(4-methylphenethoxy)ethyl)-3-oxo-1,2,3,4,7,7a-hexahydro-3aH-isoindole-3a-carboxylate]	0.93	30.3 ± 4.87	21.5 ± 2.78	0.71	
COC(=O)[C@@]12C(=O)N[C@@H](Cc3ccccc3)[C@@H]1[C@H](C)C(C)=C[C@@H]2CCOCCc1ccccc1F [Compound 17f, Methyl (1S,3aR,4S,7S,7aR)-1-benzyl-4-(2-(2-fluorophenethoxy)ethyl)-6,7-dimethyl-3-oxo-1,2,3,4,7,7a-hexahydro-3aH-isoindole-3a-carboxylate]	0.92	21 ± 4.32	34.5 ± 4.69	1.6	
COC(=O)[C@@]12C(=O)N[C@@H](Cc3ccccc3)[C@@H]1[C@H](C)[C@@](C)(O)[C@@H](O)[C@@H]2CCOCCc1ccc(Br)cc1 [Compound 23h, Methyl (1S,3aS,4R,5S,6R,7S,7aR)-1-benzyl-4-(2-(4-bromophenethoxy)ethyl)-5,6-dihydroxy-6,7-dimethyl-3-oxooctahydro-3aH-isoindole-3a-carboxylate]	0.93	23 ± 2.17	> 50	>2.2	
COC(=O)[C@@]12C(=O)N[C@@H](Cc3ccccc3)[C@@H]1C(C)=C(C)[C@@H](OC(C)=O)[C@@H]2CCOCCc1ccccc1 [Compound 28, Methyl (1S,3aS,4R,5S,7aR)-5-acetoxy-1-benzyl-6,7-dimethyl-3-oxo-4-(2-phenethoxyethyl)-1,2,3,4,5,7a-hexahydro-3aH-isoindole-3a-carboxylate]	0.72	> 50	> 50		
COC(=O)[C@@]12C(=O)N[C@@H](Cc3ccccc3)[C@@H]1[C@H](C)C(C)=C[C@@H]2CCOCCc1ccccc1 [Compound 17a, Methyl (1S,3aR,4S,7S,7aR)-1-benzyl-6,7-dimethyl-3-oxo-4-(2-phenethoxyethyl)-1,2,3,4,7,7a-hexahydro-3aH-isoindole-3a-carboxylate]	1.21	27.1 ± 1.24	30.5 ± 0.38	1.1	
